# Data taken from the NIST ThermoML archive (doi:10.1021/acs.jced.6b00391).
# “And” between values parts separate entries of the source, which are not always exact repeats. Identical values can stand only once. Numbers after ± are expanded uncertainties.
# Assays:
# [1] = Liquid, Capillary tube (Ostwald / Ubbelohde) method
# [2] = xn = mol fraction of the nth substance listed; conditions: Liquid, Capillary tube (Ostwald / Ubbelohde) method
compound,measurement,setting,value
CCCCCCCCCCCC [dodecane],viscosity,"[1]; 303.2 K, 5000 kPa",1.334 ± 0.017 mPa·s and 1.314 ± 0.014 mPa·s
same,viscosity,"[1]; 313.2 K, 5000 kPa",1.122 ± 0.016 mPa·s and 1.116 ± 0.013 mPa·s
same,viscosity,"[1]; 323 K, 5000 kPa",0.97 ± 0.014 mPa·s and 0.9626 ± 0.011 mPa·s
same,viscosity,"[1]; 333.1 K, 5000 kPa",0.8519 ± 0.013 mPa·s and 0.8434 ± 0.0096 mPa·s
same,viscosity,"[1]; 343.3 K, 5000 kPa",0.7442 ± 0.013 mPa·s and 0.7445 ± 0.0087 mPa·s
same,viscosity,"[1]; 353.3 K, 5000 kPa",0.6736 ± 0.012 mPa·s and 0.6661 ± 0.0081 mPa·s
same,viscosity,"[1]; 363.2 K, 5000 kPa",0.6075 ± 0.012 mPa·s and 0.5969 ± 0.0076 mPa·s
same,viscosity,"[1]; 373.3 K, 5000 kPa",0.5467 ± 0.012 mPa·s and 0.5397 ± 0.0073 mPa·s
same,viscosity,"[1]; 383.2 K, 5000 kPa",0.4902 ± 0.011 mPa·s and 0.4913 ± 0.007 mPa·s
same,viscosity,"[1]; 393.2 K, 5000 kPa",0.4472 ± 0.011 mPa·s and 0.448 ± 0.0068 mPa·s
same,viscosity,"[1]; 403.2 K, 5000 kPa",0.4112 ± 0.011 mPa·s and 0.4118 ± 0.0066 mPa·s
same,viscosity,"[1]; 413.2 K, 5000 kPa",0.3785 ± 0.011 mPa·s and 0.3799 ± 0.0064 mPa·s
same,viscosity,"[1]; 423.2 K, 5000 kPa",0.3508 ± 0.011 mPa·s and 0.3516 ± 0.0063 mPa·s
same,viscosity,"[1]; 433.2 K, 5000 kPa",0.3277 ± 0.011 mPa·s and 0.3259 ± 0.0062 mPa·s
same,viscosity,"[1]; 443.4 K, 5000 kPa",0.2974 ± 0.011 mPa·s and 0.3041 ± 0.0062 mPa·s
same,viscosity,"[1]; 453.1 K, 5000 kPa",0.2822 ± 0.011 mPa·s and 0.2827 ± 0.0061 mPa·s
same,viscosity,"[1]; 463.2 K, 5000 kPa",0.2604 ± 0.011 mPa·s and 0.2619 ± 0.0061 mPa·s
same,viscosity,"[1]; 473.2 K, 5000 kPa",0.244 ± 0.011 mPa·s and 0.244 ± 0.006 mPa·s
same,viscosity,"[1]; 483.1 K, 5000 kPa",0.225 ± 0.011 mPa·s and 0.2259 ± 0.006 mPa·s
same,viscosity,"[1]; 493.2 K, 5000 kPa",0.2076 ± 0.011 mPa·s and 0.2072 ± 0.0059 mPa·s
same,viscosity,"[1]; 503.2 K, 5000 kPa",0.1964 ± 0.011 mPa·s and 0.1969 ± 0.0059 mPa·s
same,viscosity,"[1]; 513.1 K, 5000 kPa",0.1846 ± 0.011 mPa·s and 0.1835 ± 0.0059 mPa·s
same,viscosity,"[1]; 523.2 K, 5000 kPa",0.1722 ± 0.011 mPa·s and 0.1698 ± 0.0059 mPa·s
same,viscosity,"[1]; 533.1 K, 5000 kPa",0.1608 ± 0.011 mPa·s and 0.1591 ± 0.0058 mPa·s
same,viscosity,"[1]; 543.2 K, 5000 kPa",0.1489 ± 0.011 mPa·s and 0.1487 ± 0.0058 mPa·s
same,viscosity,"[1]; 553.2 K, 5000 kPa",0.1375 ± 0.011 mPa·s and 0.1391 ± 0.0058 mPa·s
same,viscosity,"[1]; 563.2 K, 5000 kPa",0.1297 ± 0.011 mPa·s and 0.1305 ± 0.0058 mPa·s
same,viscosity,"[1]; 573.2 K, 5000 kPa",0.1201 ± 0.011 mPa·s and 0.1221 ± 0.0058 mPa·s
same,viscosity,"[1]; 583.3 K, 5000 kPa",0.1126 ± 0.011 mPa·s and 0.1141 ± 0.0058 mPa·s
same,viscosity,"[1]; 593.2 K, 5000 kPa",0.1031 ± 0.011 mPa·s and 0.1064 ± 0.0057 mPa·s
same,viscosity,"[1]; 603.2 K, 5000 kPa",0.0974 ± 0.011 mPa·s and 0.0987 ± 0.0057 mPa·s
same,viscosity,"[1]; 613.2 K, 5000 kPa",0.0913 ± 0.011 mPa·s and 0.0915 ± 0.0057 mPa·s
same,viscosity,"[1]; 623.1 K, 5000 kPa",0.0839 ± 0.011 mPa·s and 0.0849 ± 0.0057 mPa·s
same,viscosity,"[1]; 633.2 K, 5000 kPa",0.0767 ± 0.011 mPa·s and 0.0786 ± 0.0057 mPa·s
same,viscosity,"[1]; 643.1 K, 5000 kPa",0.0694 ± 0.011 mPa·s and 0.0714 ± 0.0057 mPa·s
same,viscosity,"[1]; 653.2 K, 5000 kPa",0.0657 ± 0.011 mPa·s and 0.065 ± 0.0057 mPa·s
same,viscosity,"[1]; 663.2 K, 5000 kPa",0.0605 ± 0.011 mPa·s and 0.0605 ± 0.0057 mPa·s
same,viscosity,"[1]; 673.2 K, 5000 kPa",0.0551 ± 0.011 mPa·s and 0.0548 ± 0.0057 mPa·s
CCCCCCCC [octane],viscosity,"[1]; 303.2 K, 3100 kPa",0.4913 ± 0.0058 mPa·s and 0.4948 ± 0.0048 mPa·s
same,viscosity,"[1]; 313.3 K, 3100 kPa",0.4426 ± 0.0057 mPa·s and 0.4431 ± 0.0046 mPa·s
same,viscosity,"[1]; 323.2 K, 3100 kPa",0.3961 ± 0.0053 mPa·s and 0.3979 ± 0.0042 mPa·s
same,viscosity,"[1]; 333.2 K, 3100 kPa",0.3634 ± 0.0051 mPa·s and 0.3617 ± 0.0038 mPa·s
same,viscosity,"[1]; 343.2 K, 3100 kPa",0.3311 ± 0.005 mPa·s and 0.3308 ± 0.0036 mPa·s
same,viscosity,"[1]; 353.1 K, 3100 kPa",0.3013 ± 0.0048 mPa·s and 0.3032 ± 0.0035 mPa·s
same,viscosity,"[1]; 363.2 K, 3100 kPa",0.2765 ± 0.0047 mPa·s and 0.2775 ± 0.0033 mPa·s
same,viscosity,"[1]; 373.3 K, 3100 kPa",0.254 ± 0.0046 mPa·s and 0.258 ± 0.0032 mPa·s
same,viscosity,"[1]; 383 K, 3100 kPa",0.234 ± 0.0045 mPa·s and 0.2379 ± 0.0031 mPa·s
same,viscosity,"[1]; 393.1 K, 3100 kPa",0.2205 ± 0.0045 mPa·s and 0.2202 ± 0.003 mPa·s
same,viscosity,"[1]; 403.2 K, 3100 kPa",0.2019 ± 0.0044 mPa·s and 0.204 ± 0.0029 mPa·s
same,viscosity,"[1]; 413.2 K, 3100 kPa",0.1905 ± 0.0044 mPa·s and 0.1902 ± 0.0028 mPa·s
same,viscosity,"[1]; 423.2 K, 3100 kPa",0.1761 ± 0.0044 mPa·s and 0.1775 ± 0.0028 mPa·s
same,viscosity,"[1]; 433.1 K, 3100 kPa",0.1643 ± 0.0043 mPa·s and 0.1642 ± 0.0027 mPa·s
same,viscosity,"[1]; 443.2 K, 3100 kPa",0.1526 ± 0.0043 mPa·s and 0.1514 ± 0.0026 mPa·s
same,viscosity,"[1]; 453.1 K, 3100 kPa",0.1417 ± 0.0043 mPa·s and 0.1428 ± 0.0026 mPa·s
same,viscosity,"[1]; 463.2 K, 3100 kPa",0.1321 ± 0.0043 mPa·s and 0.1318 ± 0.0026 mPa·s
same,viscosity,"[1]; 473.1 K, 3100 kPa",0.1228 ± 0.0042 mPa·s and 0.1241 ± 0.0025 mPa·s
same,viscosity,"[1]; 483.1 K, 3100 kPa",0.1138 ± 0.0042 mPa·s and 0.1152 ± 0.0025 mPa·s
same,viscosity,"[1]; 493.1 K, 3100 kPa",0.1068 ± 0.0042 mPa·s and 0.1072 ± 0.0025 mPa·s
same,viscosity,"[1]; 503 K, 3100 kPa",0.0993 ± 0.0042 mPa·s and 0.0983 ± 0.0025 mPa·s
same,viscosity,"[1]; 513.2 K, 3100 kPa",0.0901 ± 0.0042 mPa·s and 0.0904 ± 0.0024 mPa·s
same,viscosity,"[1]; 523.3 K, 3100 kPa",0.0825 ± 0.0042 mPa·s and 0.0826 ± 0.0024 mPa·s
same,viscosity,"[1]; 533.4 K, 3100 kPa",0.0753 ± 0.0041 mPa·s and 0.0751 ± 0.0024 mPa·s
same,viscosity,"[1]; 543.4 K, 3100 kPa",0.0678 ± 0.0041 mPa·s and 0.0678 ± 0.0024 mPa·s
same,viscosity,"[1]; 553.4 K, 3100 kPa",0.0607 ± 0.0041 mPa·s and 0.0609 ± 0.0024 mPa·s
same,viscosity,"[1]; 563.3 K, 3100 kPa",0.0532 ± 0.0041 mPa·s and 0.0534 ± 0.0024 mPa·s
same,viscosity,"[1]; 573.3 K, 3100 kPa",0.0444 ± 0.0041 mPa·s and 0.0446 ± 0.0024 mPa·s
same,viscosity,"[1]; 583.1 K, 3100 kPa",0.0325 ± 0.0041 mPa·s and 0.0323 ± 0.0024 mPa·s
CCCCCCCC [octane] + CCCCCCC,viscosity,"[2]; 303.5 K, 100 kPa, x2 = 0.255",0.4422 ± 0.011 mPa·s and 0.4417 ± 0.0058 mPa·s
same,viscosity,"[2]; 303.5 K, 100 kPa, x2 = 0.51",0.4149 ± 0.011 mPa·s and 0.413 ± 0.0057 mPa·s
same,viscosity,"[2]; 303.5 K, 5000 kPa, x2 = 0.51",0.4362 ± 0.011 mPa·s and 0.4357 ± 0.0057 mPa·s
same,viscosity,"[2]; 303.9 K, 5000 kPa, x2 = 0.255",0.4663 ± 0.011 mPa·s and 0.4658 ± 0.0058 mPa·s
same,viscosity,"[2]; 305.7 K, 100 kPa, x2 = 0.759",0.3798 ± 0.011 mPa·s and 0.3784 ± 0.0055 mPa·s
same,viscosity,"[2]; 305.7 K, 5000 kPa, x2 = 0.759",0.4032 ± 0.011 mPa·s and 0.4029 ± 0.0055 mPa·s
same,viscosity,"[2]; 333.5 K, 100 kPa, x2 = 0.51",0.3011 ± 0.01 mPa·s and 0.3026 ± 0.0053 mPa·s
same,viscosity,"[2]; 333.8 K, 100 kPa, x2 = 0.255",0.3234 ± 0.011 mPa·s and 0.3228 ± 0.0054 mPa·s
same,viscosity,"[2]; 335.6 K, 100 kPa, x2 = 0.759",0.2815 ± 0.01 mPa·s and 0.2806 ± 0.0052 mPa·s
same,viscosity,"[2]; 363.4 K, 100 kPa, x2 = 0.255",0.2447 ± 0.01 mPa·s and 0.2464 ± 0.0051 mPa·s
same,viscosity,"[2]; 363.4 K, 100 kPa, x2 = 0.51",0.2329 ± 0.01 mPa·s and 0.2323 ± 0.005 mPa·s
same,viscosity,"[2]; 364.6 K, 100 kPa, x2 = 0.759",0.2164 ± 0.01 mPa·s and 0.2169 ± 0.005 mPa·s
same,viscosity,"[2]; 373.2 K, 5000 kPa, x2 = 0.255",0.2415 ± 0.01 mPa·s and 0.2402 ± 0.0051 mPa·s
same,viscosity,"[2]; 373.2 K, 5000 kPa, x2 = 0.759",0.2181 ± 0.01 mPa·s and 0.2175 ± 0.005 mPa·s
same,viscosity,"[2]; 373.6 K, 5000 kPa, x2 = 0.51",0.2277 ± 0.01 mPa·s and 0.2275 ± 0.0051 mPa·s
same,viscosity,"[2]; 413.7 K, 5000 kPa, x2 = 0.51",0.1702 ± 0.01 mPa·s and 0.1698 ± 0.0048 mPa·s
same,viscosity,"[2]; 413.9 K, 5000 kPa, x2 = 0.255",0.1792 ± 0.01 mPa·s and 0.1801 ± 0.0048 mPa·s
same,viscosity,"[2]; 424.4 K, 5000 kPa, x2 = 0.759",0.1497 ± 0.01 mPa·s and 0.1493 ± 0.0048 mPa·s
same,viscosity,"[2]; 472.5 K, 5000 kPa, x2 = 0.759",0.1071 ± 0.01 mPa·s and 0.1075 ± 0.0047 mPa·s
same,viscosity,"[2]; 473.4 K, 5000 kPa, x2 = 0.51",0.1124 ± 0.01 mPa·s and 0.1125 ± 0.0047 mPa·s
same,viscosity,"[2]; 473.5 K, 5000 kPa, x2 = 0.255",0.1186 ± 0.01 mPa·s and 0.1184 ± 0.0047 mPa·s
